Holding throughout (type): in vivo
Data set [1] relates to Abutilon theophrasti. Nature of the data set: Post-emergence test experiment (greenhouse pot, spray at 2-3 leaf stage). The settings on record: 1000 g/ha; post-emergence spray at 2-3 leaf stage; assessed after 3 weeks; fresh weight inhibition rate. The gist of the method:
(§1)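 Weed seeds sown in soil-filled pots in greenhouse, sprayed at 2-3 leaf stage (2 weeks after sowing) with compound in acetone/tween-80 plus methyl oleate emulsible concentrate (1.5 L/ha) diluted in water. Fresh-weight growth inhibition scored after 3 weeks on 0-5 scale (5: >85%, 0: <5%).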

Data set [2] has as its system Cyperus iria. The data set is described as above. As to conditions: post-emergence, 600 g/ha, after 3 weeks; from Hunan, resistant to ALS inhibitor herbicides. Put shortly: as §1
The test system of data set [3] is Digitaria sanguinalis. The data set is described as above. As to conditions: 1000 g/ha; post-emergence spray at 2-3 leaf stage; assessed after 3 weeks; fresh weight inhibition rate. Put shortly: as §1
Data set [4] concerns Echinochloa crusgalli. The data set is described as above. The settings on record: for Activity level (growth inhibition rate) Echinochloa crusgalli: 1000 g/ha, post-emergence spray at 2-3 leaf stage, assessed after 3 weeks, fresh weight inhibition rate; for Echinochloa crusgalli, activity level (growth inhibition rate): post-emergence, 600 g/ha, after 3 weeks, from Hunan, resistant to ALS inhibitor herbicides. The gist of the method: as §1

Data set [5] has as its system Galium spurium. The description is as above. As to conditions: 1000 g/ha; post-emergence spray at 2-3 leaf stage; assessed after 3 weeks; fresh weight inhibition rate. The gist of the method: as §1
Data set [6] relates to Indica rice. The description is as above. As to conditions: post-emergence, 600 g/ha, after 3 weeks. Put shortly: (§2)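 Activity graded levels 0-5 by fresh-weight inhibition (level 5 above 85%, level 0 below 5%), assessed 3 weeks after treatment. Plants grown in greenhouse pots were sprayed post-emergence at 2-3 leaves using acetone/tween-80 solutions with methyl oleate synergist (1.5 L/ha).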

Data set [7] has as its system Japonica rice. The data set is described as above. As to conditions: post-emergence, 600 g/ha, after 3 weeks. Put shortly:
as §2

The subject of data set [8] is Monochoria vaginalis. Described as above. As to conditions: 1000 g/ha; post-emergence spray at 2-3 leaf stage; assessed after 3 weeks; fresh weight inhibition rate. Put shortly: as §1
The test system of data set [9] is rice (japonica rice). Nature of the data set: Transplanted rice safety evaluation in rice field soil pot. The settings on record: 1000 g/ha, 21 days after treatment. The text has this:
(§3) The activity level standard of harmful plants destruction (i. e. growth inhibition rate) is as follows: • Level 5: the growth inhibition rate is greater than 85%; • Level 4: the growth inhibition rate is equal to or greater than 60% and less than 85%; • Level 3: the growth inhibition rate is equal to or greater than 40% and less than 60%; • Level 2: the growth inhibition rate is equal to or greater than 20% and less than 40%; • Level 1: the growth inhibition rate is equal to or greater than 5% and less than 20%; • Level 0: the growth inhibition rate is less than 5%;
(§4) Transplanted rice safety evaluation and weed control effect evaluation in rice field:
In addition, the rice field soil that loaded into the 1/1,000,000 ha pot was leveled to keep water storage at 3-4 cm depth. The 3-leaf stage rice (japonica rice) was transplanted at 3 cm of transplanting depth the next day. The compound of the present invention was treated by the same way after 5 days of transplantation.
(§5) The fertility condition of Monochoria vaginalis 14 days and rice 21 days after the treatment of the compound of the invention with the naked eye.

The test system of data set [10] is Monochoria vaginalis. Nature of the data set: Weed control effect evaluation in rice field soil pot. The settings on record: paddy pot, 1000 g/ha, 14 days after treatment; resistant to pyrazosulfuron-ethyl and penoxsulam.
Description: as §3, §4
Rice field soil was loaded into a 1/1,000,000 ha pot. The seeds of Monochoria vaginalis were sowed and gently covered with soil, then left to stand still in greenhouse in the state of 0.5-1 cm of water storage. It was kept at 3-4 cm of water storage thereafter. The weeds were treated by dripping the WP or SC water diluents prepared according to the common preparation method of the compounds of the present invention with pipette homogeneously to achieve specified effective amount when Monochoria vaginalis reached 0.5 leaf stage.
as §5

In the case of `Cc1c(F)nc(OC(C)C(=O)OCc2ccccc2)c(C)c1N` (stereo not shown) [Compound 7], in [1], the “Activity level (growth inhibition rate) Abutilon theophrasti” value is 5 (Level 5: the growth inhibition rate is greater than 85%). Moreover, in data set [2], the “Cyperus iria, activity level (growth inhibition rate)” value is on record as 5 (Level 5: the growth inhibition rate is greater than 85%). Also, the “Activity level (growth inhibition rate) Digitaria sanguinalis” value in [3] is listed as 5 (Level 5: the growth inhibition rate is greater than 85%). For the same molecule, in data set [4], the “Activity level (growth inhibition rate) Echinochloa crusgalli” value is 5 (Level 5: the growth inhibition rate is greater than 85%) and the “Echinochloa crusgalli, activity level (growth inhibition rate)” value is 5 (Level 5: the growth inhibition rate is greater than 85%). For the same molecule, in data set [5], the “Activity level (growth inhibition rate) Galium spurium” value was 5 (Level 5: the growth inhibition rate is greater than 85%). Besides, the “Indica rice, activity level (growth inhibition rate)” value in data set [6] is 0 (Level 0: the growth inhibition rate is less than 5%). In data set [7], the “Japonica rice, activity level (growth inhibition rate)” value is 0 (Level 0: the growth inhibition rate is less than 5%). In addition, the “Activity level (growth inhibition rate) Monochoria Vaginalis” value in [8] is 5 (Level 5: the growth inhibition rate is greater than 85%). For the same molecule, the “Rice, safety level” value in [9] is reported as 0 (Level 0: the growth inhibition rate is less than 5%). Besides, the “Monochoria Vaginalis, activity level” value in [10] was 5 (Level 5: the growth inhibition rate is greater than 85%).
In the case of `CC(Oc1nc(F)c(Br)c(N)c1Br)C(=O)SCc1ccccc1` (stereo not shown) [Compound 12], the “Activity level (growth inhibition rate) Abutilon theophrasti” value in data set [1] was 5 (Level 5: the growth inhibition rate is greater than 85%). Besides, the “Cyperus iria, activity level (growth inhibition rate)” value in [2] is listed as 5 (Level 5: the growth inhibition rate is greater than 85%). The “Activity level (growth inhibition rate) Digitaria sanguinalis” value in data set [3] is recorded as 5 (Level 5: the growth inhibition rate is greater than 85%). Moreover, in data set [4], the “Activity level (growth inhibition rate) Echinochloa crusgalli” value is on record as 5 (Level 5: the growth inhibition rate is greater than 85%) and the “Echinochloa crusgalli, activity level (growth inhibition rate)” value is 5 (Level 5: the growth inhibition rate is greater than 85%). The “Activity level (growth inhibition rate) Galium spurium” value in data set [5] was 5 (Level 5: the growth inhibition rate is greater than 85%). The “Indica rice, activity level (growth inhibition rate)” value in data set [6] was 0 (Level 0: the growth inhibition rate is less than 5%). In data set [7], the “Japonica rice, activity level (growth inhibition rate)” value is given as 0 (Level 0: the growth inhibition rate is less than 5%). Also, the “Activity level (growth inhibition rate) Monochoria Vaginalis” value in data set [8] is reported as 5 (Level 5: the growth inhibition rate is greater than 85%). For the same molecule, the “Rice, safety level” value in data set [9] is 0 (Level 0: the growth inhibition rate is less than 5%). Besides, in [10], the “Monochoria Vaginalis, activity level” value was 5 (Level 5: the growth inhibition rate is greater than 85%).
`Cc1c(OC(C)C(=O)OCc2ccccc2)nc(F)c(Cl)c1N` (stereo not shown) [Compound 20]: the “Activity level (growth inhibition rate) Abutilon theophrasti” value in data set [1] is reported as 5 (Level 5: the growth inhibition rate is greater than 85%). In addition, in [2], the “Cyperus iria, activity level (growth inhibition rate)” value is 5 (Level 5: the growth inhibition rate is greater than 85%). Further, in data set [3], the “Activity level (growth inhibition rate) Digitaria sanguinalis” value is given as 5 (Level 5: the growth inhibition rate is greater than 85%). For the same molecule, in [4], the “Activity level (growth inhibition rate) Echinochloa crusgalli” value was 5 (Level 5: the growth inhibition rate is greater than 85%) and the “Echinochloa crusgalli, activity level (growth inhibition rate)” value is reported as 5 (Level 5: the growth inhibition rate is greater than 85%). Further, the “Activity level (growth inhibition rate) Galium spurium” value in [5] is 5 (Level 5: the growth inhibition rate is greater than 85%). Moreover, the “Indica rice, activity level (growth inhibition rate)” value in [6] is listed as 0 (Level 0: the growth inhibition rate is less than 5%). The “Japonica rice, activity level (growth inhibition rate)” value in data set [7] is recorded as 0 (Level 0: the growth inhibition rate is less than 5%). Also, in data set [8], the “Activity level (growth inhibition rate) Monochoria Vaginalis” value is reported as 5 (Level 5: the growth inhibition rate is greater than 85%). Besides, in data set [9], the “Rice, safety level” value is 0 (Level 0: the growth inhibition rate is less than 5%). For the same molecule, in data set [10], the “Monochoria Vaginalis, activity level” value was 5 (Level 5: the growth inhibition rate is greater than 85%).
For `CC(Oc1nc(F)c(Cl)c(N)c1Cl)C(=O)SCc1ccccc1` (stereo not shown) [Compound 67], the “Activity level (growth inhibition rate) Abutilon theophrasti” value in data set [1] is 5 (Level 5: the growth inhibition rate is greater than 85%). Further, the “Cyperus iria, activity level (growth inhibition rate)” value in data set [2] is on record as 5 (Level 5: the growth inhibition rate is greater than 85%). Further, in data set [3], the “Activity level (growth inhibition rate) Digitaria sanguinalis” value was 5 (Level 5: the growth inhibition rate is greater than 85%). In [4], the “Activity level (growth inhibition rate) Echinochloa crusgalli” value is reported as 5 (Level 5: the growth inhibition rate is greater than 85%) and the “Echinochloa crusgalli, activity level (growth inhibition rate)” value is 5 (Level 5: the growth inhibition rate is greater than 85%). Moreover, the “Activity level (growth inhibition rate) Galium spurium” value in data set [5] was 5 (Level 5: the growth inhibition rate is greater than 85%). Moreover, the “Indica rice, activity level (growth inhibition rate)” value in data set [6] is reported as 0 (Level 0: the growth inhibition rate is less than 5%). Besides, in data set [7], the “Japonica rice, activity level (growth inhibition rate)” value is given as 0 (Level 0: the growth inhibition rate is less than 5%). In data set [8], the “Activity level (growth inhibition rate) Monochoria Vaginalis” value is listed as 5 (Level 5: the growth inhibition rate is greater than 85%). The “Rice, safety level” value in [9] is 0 (Level 0: the growth inhibition rate is less than 5%). Further, in [10], the “Monochoria Vaginalis, activity level” value is 5 (Level 5: the growth inhibition rate is greater than 85%).
As to `CC(Oc1nc(F)c(Cl)c(N)c1Cl)C(=O)OCc1ccccc1F` (stereo not shown) [Compound 75], the “Activity level (growth inhibition rate) Abutilon theophrasti” value in data set [1] is recorded as 5 (Level 5: the growth inhibition rate is greater than 85%). The “Cyperus iria, activity level (growth inhibition rate)” value in data set [2] is given as 5 (Level 5: the growth inhibition rate is greater than 85%). For the same molecule, the “Activity level (growth inhibition rate) Digitaria sanguinalis” value in [3] was 5 (Level 5: the growth inhibition rate is greater than 85%). In [4], the “Activity level (growth inhibition rate) Echinochloa crusgalli” value was 5 (Level 5: the growth inhibition rate is greater than 85%) and the “Echinochloa crusgalli, activity level (growth inhibition rate)” value is recorded as 5 (Level 5: the growth inhibition rate is greater than 85%). Also, the “Activity level (growth inhibition rate) Galium spurium” value in data set [5] is reported as 5 (Level 5: the growth inhibition rate is greater than 85%). Moreover, the “Indica rice, activity level (growth inhibition rate)” value in data set [6] was 0 (Level 0: the growth inhibition rate is less than 5%). Further, in data set [7], the “Japonica rice, activity level (growth inhibition rate)” value was 0 (Level 0: the growth inhibition rate is less than 5%). For the same molecule, the “Activity level (growth inhibition rate) Monochoria Vaginalis” value in [8] was 5 (Level 5: the growth inhibition rate is greater than 85%). Further, in data set [9], the “Rice, safety level” value is recorded as 0 (Level 0: the growth inhibition rate is less than 5%). Besides, the “Monochoria Vaginalis, activity level” value in data set [10] is 5 (Level 5: the growth inhibition rate is greater than 85%).

The values are drawn from patent US12049450B2, “Pyridyloxy-carboxylate derivative and preparation method therefor, herbicidal composition, and use” (Qingdao Kingagroot Chemical Compound Co., Ltd., priority 2018, dated 2024).
